Legend:
[1] = target: T1, human recombinant histamine H1 receptor (Homo sapiens, UniProt P35367); test: Histamine H1 radioligand binding ([3H]Pyrilamine); conditions: for inhibition at 1 µM: read-out: Histamine Binding (1 μM) H1, Percentage Inhibition
T1 construct: expressed in transfected cells; host or cells: CHO cells
Protocol: To evaluate in radioligand binding assays the activity of compounds of the invention, human recombinant histamine H1 receptor expressed in Chinese hamster ovary (CHO) cells (De Backer, M. D. et al., Biochem. Biophys. Res. Comm. 197(3):1601, 1993) in a modified Tris-HCl buffer (50 mM Tris-HCl, pH 7.4, 2 mM MgCl2, 100 mM NaCl, 250 mM Sucrose) was used. Compounds of the invention were incubated with 1.2 nM [^3H]Pyrilamine for 180 minutes at 25° C. Non-specific binding was estimated in the presence of 1 μM pyrilamine. Receptor proteins were filtered and washed, the filters were then counted to determine [^3H]Pyrilamine specifically bound. Compounds were screened at 1 μM or lower, using 1% DMSO as vehicle. Biochemical assay results are presented as the percent inhibition of specific binding in Table 2.

[2] = target: T2, human recombinant histamine H2 receptor (Homo sapiens, UniProt P25021); test: Histamine H2 radioligand binding ([125I]Aminopotentidine); conditions: compound at 1 μM; inhibition of specific [125I]Aminopotentidine binding; read-out: Histamine Binding (1 μM) H2, Percentage Inhibition
T2 construct: expressed in transfected cells; host or cells: CHO-K1 cells
T2 sequence (P25021 whole entry): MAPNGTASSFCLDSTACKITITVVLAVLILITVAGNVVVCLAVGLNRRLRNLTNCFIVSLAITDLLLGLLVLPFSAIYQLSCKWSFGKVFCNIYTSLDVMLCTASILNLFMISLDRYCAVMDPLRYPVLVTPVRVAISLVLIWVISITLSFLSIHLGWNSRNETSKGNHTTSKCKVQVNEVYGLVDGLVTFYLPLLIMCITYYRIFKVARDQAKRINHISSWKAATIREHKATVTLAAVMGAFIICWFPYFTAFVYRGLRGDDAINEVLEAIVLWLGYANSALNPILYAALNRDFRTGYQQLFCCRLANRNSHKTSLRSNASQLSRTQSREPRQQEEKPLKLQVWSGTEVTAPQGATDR
Protocol: To evaluate in radioligand binding assays the activity of compounds of the invention, human recombinant histamine H2 receptor expressed in Chinese hamster ovary (CHO) K1 cells (Ruat, M., Proc. Natl. Acad. Sci. USA. 87(5):1658, 1990) in a 50 mM Phosphate buffer, pH 7.4 was used. Compounds of the invention were incubated with 0.1 nM [^125I]Aminopotentidine for 120 minutes at 25° C. Non-specific binding was estimated in the presence of 3 μM Tiotidine. Receptor proteins were filtered and washed, the filters were then counted to determine [^125I]Aminopotentidine specifically bound. Compounds were screened at 1 μM or lower, using 1% DMSO as vehicle. Biochemical assay results are presented as the percent inhibition of specific binding in Table 2.

[3] = target: T3, human recombinant adrenergic α2B receptor (Homo sapiens, UniProt P18089); test: Adrenergic α2B radioligand binding ([3H]Rauwolscine); conditions: for inhibition at 1 µM: read-out: Adrenergic α2B, inhibition of ligand binding (1 μM)
T3 construct: expressed in transfected cells; host or cells: CHO-K1 cells
T3 sequence (P18089 1-450): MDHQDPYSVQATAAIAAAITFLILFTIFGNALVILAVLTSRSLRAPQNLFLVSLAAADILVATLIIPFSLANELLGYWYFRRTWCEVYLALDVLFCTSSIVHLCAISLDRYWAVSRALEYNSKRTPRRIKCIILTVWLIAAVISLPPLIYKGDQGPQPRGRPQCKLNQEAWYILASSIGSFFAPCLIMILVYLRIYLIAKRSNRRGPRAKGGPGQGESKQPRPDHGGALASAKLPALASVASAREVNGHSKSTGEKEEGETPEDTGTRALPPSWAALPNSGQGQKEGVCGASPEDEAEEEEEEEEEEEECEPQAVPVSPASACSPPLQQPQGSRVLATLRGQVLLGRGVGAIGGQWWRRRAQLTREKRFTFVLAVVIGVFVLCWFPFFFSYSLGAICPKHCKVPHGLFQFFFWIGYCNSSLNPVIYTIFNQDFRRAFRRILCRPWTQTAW
Protocol: To evaluate in radioligand binding assays the activity of compounds of the invention, human recombinant adrenergic α2B receptor expressed in Chinese hamster ovary (CHO-K1) cells (Uhlen S et al. Eur J. Pharmacol. 343(1):93, 1998) in a modified Tris-HCl buffer (50 mM Tris-HCl, pH 7.4, 12.5 mM MgCl2, 1 mM EDTA, 0.2% BSA) was used. Compounds of the invention were incubated with 2.5 nM [^3H]Rauwolscine for 60 minutes at 25° C. Non-specific binding was estimated in the presence of 10 μM Prozosin. Receptor proteins were filtered and washed, the filters were then counted to determine [^3H]Rauwolscine specifically bound. Compounds were screened at 1 μM or lower, using 1% DMSO as vehicle. Biochemical assay results are presented as the percent inhibition of specific binding in Table 3.

[4] = target: T4, human recombinant serotonin (5-Hydroxytryptamine) 5-HT2C receptor (Homo sapiens, UniProt P28335); test: Serotonin 5-HT2C radioligand binding ([3H]Mesulergine); conditions: read-out: Serotonin 5-HT2C, inhibition of ligand binding (1 μM)
T4 construct: expressed in transfected cells; host or cells: CHO-K1 cells
T4 sequence (P28335 33-458): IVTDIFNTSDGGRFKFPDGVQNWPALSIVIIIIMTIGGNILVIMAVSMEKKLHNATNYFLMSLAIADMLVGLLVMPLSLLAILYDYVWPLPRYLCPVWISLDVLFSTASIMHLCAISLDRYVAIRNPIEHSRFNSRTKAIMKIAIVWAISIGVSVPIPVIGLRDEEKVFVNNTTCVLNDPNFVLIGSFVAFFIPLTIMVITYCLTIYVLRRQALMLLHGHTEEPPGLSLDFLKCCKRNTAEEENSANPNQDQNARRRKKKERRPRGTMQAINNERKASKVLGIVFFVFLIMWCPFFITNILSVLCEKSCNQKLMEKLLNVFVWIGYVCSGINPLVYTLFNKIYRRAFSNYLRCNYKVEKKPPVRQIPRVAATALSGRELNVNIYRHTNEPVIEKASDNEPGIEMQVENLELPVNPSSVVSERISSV
Protocol: To evaluate in radioligand binding assays the activity of compounds of the invention, human recombinant serotonin (5-Hydroxytryptamine) 5-HT2C receptor expressed in Chinese hamster ovary (CHO-K1) cells (Wolf, W. A. and Schutz, J. S., J. Neurochem. 69:1449, 1997) in a modified Tris-HCl buffer (50 mM Tris-HCl, pH 7.4, 0.1% Ascorbic Acid, 10 μM Pargyline) was used. Compounds of the invention were incubated with 1 nM [^3H]Mesulergine for 60 minutes at 25° C. Non-specific binding was estimated in the presence of 1 μM Mianserin. Receptor proteins were filtered and washed, the filters were then counted to determine [^3H]Mesulergine specifically bound. Compounds were screened at 1 μM or lower, using 1% DMSO as vehicle. Biochemical assay results are presented as the percent inhibition of specific binding in Table 4.

[5] = compound at 1 μM, inhibition of specific [3H]Pyrilamine binding

T1 sequence (P35367 whole entry): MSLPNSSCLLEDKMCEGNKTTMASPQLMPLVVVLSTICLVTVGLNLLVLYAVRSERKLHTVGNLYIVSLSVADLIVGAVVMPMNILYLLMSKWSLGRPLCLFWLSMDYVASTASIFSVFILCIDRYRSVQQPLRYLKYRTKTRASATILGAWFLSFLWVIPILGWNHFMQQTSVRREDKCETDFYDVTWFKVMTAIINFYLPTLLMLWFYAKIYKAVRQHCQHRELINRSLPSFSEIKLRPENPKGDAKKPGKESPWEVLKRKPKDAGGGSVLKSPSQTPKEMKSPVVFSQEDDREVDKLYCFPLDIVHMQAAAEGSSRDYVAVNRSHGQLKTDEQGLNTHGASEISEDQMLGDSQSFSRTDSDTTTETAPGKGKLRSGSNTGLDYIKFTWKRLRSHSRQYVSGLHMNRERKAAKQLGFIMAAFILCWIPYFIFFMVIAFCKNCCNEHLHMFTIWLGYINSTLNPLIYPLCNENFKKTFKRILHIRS

Cc1ccc2c(c1)c1c(n2CC(O)c2ccc(C)nc2)CC2CCC1N2C (centres unmarked) [Compound 91]
inhibition at 1 µM [1, 5]: 51%
inhibition at 1 µM [2]: 9%
inhibition at 1 µM ([3]; 1 μM): 67%
inhibition at 1 µM [4]: -4%

CN1C2CCC1c1c(n(CCCc3ccc(Cl)cc3)c3ccc(Cl)cc13)C2 (centres unmarked) [Compound 39]
inhibition at 1 µM [1, 5]: 91%
inhibition at 1 µM [2]: 86%
inhibition at 1 µM ([3]; 1 μM): 54%
inhibition at 1 µM [4]: 94%

CN1[C@H]2CC[C@@H]1c1c(n(CCc3ccc(F)cc3)c3ccc(F)cc13)C2 [Compound 95, (−)-(7R,10S)-2-Fluoro-5-(4-fluorophenethyl)-11-methyl-5,6,7,8,9,10-hexahydro-7,10-iminocyclohept[b]indole]
inhibition at 1 µM [1, 5]: 55%
inhibition at 1 µM [2]: 8%
inhibition at 1 µM ([3]; 1 μM): 36%
inhibition at 1 µM [4]: 55%

Cc1ccc2c(c1)c1c(n2CCc2cccnc2)CC2CCC1N2C (centres unmarked) [Compound 86]
inhibition at 1 µM [1, 5]: 99%
inhibition at 1 µM [2]: 26%
inhibition at 1 µM ([3]; 1 μM): 106%
inhibition at 1 µM [4]: 72%

Cc1ccc2c(c1)c1c(n2CCc2nc(-c3ccccc3)cs2)CC2CCC1N2C (centres unmarked) [Compound 114]
inhibition at 1 µM [1, 5]: 93%
inhibition at 1 µM [2]: 10%
inhibition at 1 µM ([3]; 1 μM): 107%
inhibition at 1 µM [4]: 59%

Cc1ccc2c(c1)c1c(n2CCc2ccccc2)CC2CCC1N2C (centres unmarked) [Compound 2]
inhibition at 0.01 µM ([1]; compound at 10.0 nM, read-out: Histamine Binding H1, Percentage Inhibition (10.0 nM)): 42%
inhibition at 0.1 µM ([1]; compound at 0.1 μM, read-out: Histamine Binding H1, Percentage Inhibition (0.1 μM)): 85%
inhibition at 1 µM [1, 5]: 99%
inhibition at 1 µM [2]: 43%
inhibition at 0.01 µM ([3]; 10.0 nM, read-out: Adrenergic α2B, inhibition of ligand binding (10.0 nM)): 85%
inhibition at 0.1 µM ([3]; 0.1 μM, read-out: Adrenergic α2B, inhibition of ligand binding (0.1 μM)): 108%
inhibition at 1 µM ([3]; 1 μM): 98%
inhibition at 1 µM [4]: 79%

Cc1ccc2c(c1)c1c(n2CC(=O)N2CCCCC2)CC2CCC1N2C (centres unmarked) [Compound 93]
inhibition at 1 µM [1, 5]: 4%
inhibition at 1 µM [2]: -5%
inhibition at 1 µM ([3]; 1 μM): -6%
inhibition at 1 µM [4]: 7%

Cc1ccc(CCCn2c3c(c4cc(Cl)ccc42)C2CCC(C3)N2C)cn1 (centres unmarked) [Compound 38]
inhibition at 1 µM [1, 5]: 96%
inhibition at 1 µM [2]: 9%
inhibition at 1 µM ([3]; 1 μM): 76%
inhibition at 1 µM [4]: 23%

CN1C2CCC1c1c(n(CCC(=O)N3CCNCC3)c3ccc(Cl)cc13)C2 (centres unmarked) [Compound 9]
inhibition at 1 µM [1, 5]: 6%
inhibition at 1 µM [2]: 3%
inhibition at 1 µM ([3]; 1 μM): -15%
inhibition at 1 µM [4]: 5%

Cc1ccc2c(c1)c1c(n2CCc2cnc(C)nc2)CC2CCC1N2C (centres unmarked) [Compound 81]
inhibition at 1 µM [1, 5]: 51%
inhibition at 1 µM [2]: -9%
inhibition at 1 µM ([3]; 1 μM): 40%
inhibition at 1 µM [4]: 25%

C/C(=C\n1c2c(c3cc(Cl)ccc31)C1CCC(C2)N1C)c1ccc(Cl)cc1 (centres unmarked) [Compound 125]
inhibition at 1 µM [1, 5]: 82%
inhibition at 1 µM [2]: 96%
inhibition at 1 µM ([3]; 1 μM): 103%
inhibition at 1 µM [4]: 99%

CN1C2CCC1c1c(n(C#Cc3ccc(Cl)cc3)c3ccc(Cl)cc13)C2 (centres unmarked) [Compound 142]
inhibition at 1 µM [1, 5]: 34%
inhibition at 1 µM [2]: 71%
inhibition at 1 µM ([3]; 1 μM): 95%
inhibition at 1 µM [4]: 100%

CN1C2CCC1c1c(n(CCC(=O)N3CCOCC3)c3ccc(Cl)cc13)C2 (centres unmarked) [Compound 13]
inhibition at 1 µM [1, 5]: 28%
inhibition at 1 µM [2]: -2%
inhibition at 1 µM ([3]; 1 μM): 7%
inhibition at 1 µM [4]: 8%

Cc1ccc(CCn2c3c(c4ccccc42)C2CCC(C3)N2C)cn1 (centres unmarked) [Compound 92]
inhibition at 1 µM [1, 5]: 54%
inhibition at 1 µM [2]: 11%
inhibition at 1 µM ([3]; 1 μM): 34%
inhibition at 1 µM [4]: 9%

CN1[C@@H]2CC[C@H]1c1c(n(CCc3ccc(F)cc3)c3ccc(F)cc13)C2 [Compound 94, (+)-(7S,10R)-2-Fluoro-5-(4-fluorophenethyl)-11-methyl-5,6,7,8,9,10-hexahydro-7,10-iminocyclohept[b]indole]
inhibition at 1 µM [1, 5]: 92%
inhibition at 1 µM [2]: 4%
inhibition at 1 µM ([3]; 1 μM): 102%
inhibition at 1 µM [4]: 75%

Cc1ccc(C(O)Cn2c3c(c4cc(Cl)ccc42)C2CCC(C3)N2C)cn1 (centres unmarked) [Compound 52]
inhibition at 1 µM [1, 5]: 91%
inhibition at 1 µM [2]: 2%
inhibition at 1 µM ([3]; 1 μM): 85%
inhibition at 1 µM [4]: 11%

C/C(=C\n1c2c(c3cc(C)ccc31)C1CCC(C2)N1C)c1ccc(Cl)cc1 (centres unmarked) [Compound 116]
inhibition at 1 µM [1, 5]: 23%
inhibition at 1 µM [2]: 81%
inhibition at 1 µM ([3]; 1 μM): 95%
inhibition at 1 µM [4]: 97%

CN1C2CCC1c1c(n(CCc3ccc(F)cc3)c3ccc(F)cc13)C2 (centres unmarked) [Compound 35]
inhibition at 1 µM [1, 5]: 93%
inhibition at 1 µM [2]: 27%
inhibition at 1 µM ([3]; 1 μM): 110%
inhibition at 1 µM [4]: 86%

CN1[C@@H]2CC[C@H]1c1c(n(CCc3ccc(C(F)(F)F)nc3)c3ccccc13)C2 [Compound 97]
inhibition at 1 µM [1, 5]: 26%
inhibition at 1 µM [2]: 11%
inhibition at 1 µM ([3]; 1 μM): 103%
inhibition at 1 µM [4]: 97%

CN1C2CCC1c1c(n(CCC(=O)N3CCS(=O)(=O)CC3)c3ccc(Cl)cc13)C2 (centres unmarked) [Compound 11]
inhibition at 1 µM [1, 5]: 2%
inhibition at 1 µM [2]: 9%
inhibition at 1 µM ([3]; 1 μM): 1%
inhibition at 1 µM [4]: 13%

Cc1ccc2c(c1)c1c(n2C#Cc2ccc(F)cc2)CC2CCC1N2C (centres unmarked) [Compound 141]
inhibition at 1 µM [1, 5]: 2%
inhibition at 1 µM [2]: 25%
inhibition at 1 µM ([3]; 1 μM): 95%
inhibition at 1 µM [4]: 89%

COc1ccc(C(C)(O)Cn2c3c(c4cc(Cl)ccc42)C2CCC(C3)N2C)cc1F (centres unmarked) [Compound 160]
inhibition at 1 µM [1, 5]: 86%
inhibition at 1 µM [2]: 22%
inhibition at 1 µM ([3]; 1 μM): 80%
inhibition at 1 µM [4]: 93%

Cc1ccc(C#Cn2c3c(c4cc(Cl)ccc42)C2CCC(C3)N2C)cn1 (centres unmarked) [Compound 139]
inhibition at 1 µM [1, 5]: 57%
inhibition at 1 µM [2]: 34%
inhibition at 1 µM ([3]; 1 μM): 115%
inhibition at 1 µM [4]: 93%

Cc1ccc2c(c1)c1c(n2CCc2ccc(C(F)(F)F)nc2)CC2CCC1N2C (centres unmarked) [Compound 71]
Histamine Binding (1 μM) H1, Percentage Inhibition ([1]; compound at 1 μM, inhibition of specific [3H]Pyrilamine binding, 1 µM): 46.0%
inhibition at 1 µM [1, 5]: 33%
Adrenergic α2B, inhibition of ligand binding (1 μM) ([3]; 1 μM): 98.0%
inhibition at 1 µM ([3]; 1 μM): 99%
inhibition at 1 µM [4]: -0.259%

Source: patent US8546381B2, “Bridged heterocyclic compounds and methods of use” (Medivation Technologies, Inc., priority 2008, dated 2013)
